Results: ChEMBL document CHEMBL1201862, “PubChem BioAssay data set” (2004)
Active and inactive are the calls of the source.

How the values were obtained:
[1] = biological target: Dual specificity protein kinase CLK1 (Homo sapiens, UniProt P49759); experiment: CLK1 kinase inhibitors, off-target check, dose response, selectivity assay for Dyrk1A inhibitor project, biochemical, cherry-picked samples (AID 588811)
[2] = biological target: T1, Histone-lysine N-methyltransferase NSD2 (Homo sapiens, UniProt O96028); format: biochemical
T1 sequence (O96028 whole entry): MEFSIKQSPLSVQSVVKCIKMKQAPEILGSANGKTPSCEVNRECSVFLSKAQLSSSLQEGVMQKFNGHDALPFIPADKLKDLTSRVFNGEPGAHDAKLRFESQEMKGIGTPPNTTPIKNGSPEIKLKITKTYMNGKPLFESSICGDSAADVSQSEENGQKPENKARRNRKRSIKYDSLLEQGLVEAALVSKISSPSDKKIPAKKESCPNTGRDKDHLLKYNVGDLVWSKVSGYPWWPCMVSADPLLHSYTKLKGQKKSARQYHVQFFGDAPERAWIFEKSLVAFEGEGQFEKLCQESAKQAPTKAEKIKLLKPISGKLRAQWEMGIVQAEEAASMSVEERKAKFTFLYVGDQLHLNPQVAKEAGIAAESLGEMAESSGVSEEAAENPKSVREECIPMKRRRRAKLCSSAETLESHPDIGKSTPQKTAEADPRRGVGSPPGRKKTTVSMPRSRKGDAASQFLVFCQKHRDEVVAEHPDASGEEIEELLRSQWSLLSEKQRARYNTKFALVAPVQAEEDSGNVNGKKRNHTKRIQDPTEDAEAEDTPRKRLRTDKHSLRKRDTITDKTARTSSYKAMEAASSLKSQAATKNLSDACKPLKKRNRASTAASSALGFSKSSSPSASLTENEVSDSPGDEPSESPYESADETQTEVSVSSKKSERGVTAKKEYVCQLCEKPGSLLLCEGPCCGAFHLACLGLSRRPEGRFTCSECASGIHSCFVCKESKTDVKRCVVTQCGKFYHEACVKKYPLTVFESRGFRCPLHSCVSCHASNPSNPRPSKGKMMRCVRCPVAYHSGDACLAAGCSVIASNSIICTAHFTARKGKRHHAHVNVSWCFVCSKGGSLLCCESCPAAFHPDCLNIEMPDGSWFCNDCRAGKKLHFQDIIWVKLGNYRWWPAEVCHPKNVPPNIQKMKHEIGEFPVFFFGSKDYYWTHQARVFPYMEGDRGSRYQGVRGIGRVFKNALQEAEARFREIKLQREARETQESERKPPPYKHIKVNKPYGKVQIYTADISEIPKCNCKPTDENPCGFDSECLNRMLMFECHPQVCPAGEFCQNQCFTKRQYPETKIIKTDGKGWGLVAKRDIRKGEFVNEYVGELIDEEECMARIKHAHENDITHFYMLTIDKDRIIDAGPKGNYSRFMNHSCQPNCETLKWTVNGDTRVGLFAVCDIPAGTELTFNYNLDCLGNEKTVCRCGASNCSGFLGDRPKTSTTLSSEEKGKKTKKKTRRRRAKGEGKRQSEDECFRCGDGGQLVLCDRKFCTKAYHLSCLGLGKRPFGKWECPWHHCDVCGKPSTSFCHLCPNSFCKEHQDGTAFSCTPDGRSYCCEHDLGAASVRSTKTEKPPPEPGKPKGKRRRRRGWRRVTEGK

[3] = biological target: Serine/threonine-protein phosphatase (Candida dubliniensis (strain CD36 / CBS 7987 / NCPF 3949 / NRRLY-17841) (Yeast), UniProt B9W6M3); experiment: calcineurin pathway inhibitors in yeast reporter, dose response, S. cerevisiae, CDRE-lacZ, luminescence, secondary (AID 2388); format: functional, cell-based;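 also: yeast reporter cells carrying a calcineurin-responsive lacZ construct stimulated with calcium chloride; luminescent beta-galactosidase reporter signal in whole cells rather than isolated phosphatase activity; potency for inhibition where a drop in reporter signal means calcineurin blockade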
SUMO-activating enzyme [4] = biological target: T2, SUMO-activating enzyme (Homo sapiens, UniProt Q9UBT2); experiment: SUMOylation inhibitor hit validation, confirmation, SUMOylation inhibitor project, biochemical, AlphaScreen (AID 2018); format: functional
[5] = biological target: T3, Mannose-6-phosphate isomerase (Homo sapiens, UniProt P34949); experiment: human PMI inhibitors, high substrate, primary screen, biochemical, fluorescence intensity, high mannose 6-phosphate (AID 1220)
T3 sequence (P34949 whole entry): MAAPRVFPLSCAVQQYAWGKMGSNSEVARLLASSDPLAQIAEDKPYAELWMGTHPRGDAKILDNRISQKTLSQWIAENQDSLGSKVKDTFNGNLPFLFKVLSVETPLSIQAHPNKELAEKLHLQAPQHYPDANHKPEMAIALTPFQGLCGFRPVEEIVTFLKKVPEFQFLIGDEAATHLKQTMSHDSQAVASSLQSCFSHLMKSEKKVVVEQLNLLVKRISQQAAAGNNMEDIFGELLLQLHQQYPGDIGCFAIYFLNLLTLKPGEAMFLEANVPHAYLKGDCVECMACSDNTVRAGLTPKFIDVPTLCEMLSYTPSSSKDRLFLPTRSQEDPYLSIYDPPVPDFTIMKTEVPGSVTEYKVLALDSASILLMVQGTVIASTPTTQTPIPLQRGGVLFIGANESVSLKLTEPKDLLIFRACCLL

[6] = NIH-3T3 fibroblast cytotoxicity, dose response, cytotoxicity control, cell-based, fluorescence, Alamar Blue, secondary assay (AID 2327); format: functional;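 also: NIH-3T3 mouse fibroblasts cultured with fluconazole at 8 µg/mL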
Vero = Vero cell cytotoxicity, cytotoxicity control for flavivirus capping enzyme inhibitors (AID 588742); format: functional; settings: Chlorocebus sabaeus
SUMO-activating enzyme [7] = biological target: T2, SUMO-activating enzyme; experiment: inhibitors of in vitro SUMOylation cascade, primary screen, biochemical, HTRF, uHTS (AID 2006); format: protein-complex assay
[8] = C. albicans growth with fluconazole, confirmation, fluorescence, retest (AID 2467); format: functional, cell-based
[9] = biological target: ATP-dependent molecular chaperone HSP82 (Candida albicans (strain WO-1) (Yeast), UniProt C4YTQ8); experiment: loss of DOC-induced GRE-beta-galactosidase reporter signal, dose response, Hsp90 inhibitor project, S. cerevisiae, luminescence (AID 2400); format: functional, cell-based;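 also: beta-galactosidase luminescence from glucocorticoid response element reporter as proxy for Hsp90 function; inhibitor potency where signal loss means Hsp90 inhibition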
[10] = inhibitors of SNCA 5'UTR-driven reporter translation, confirmation, H4 neuroglioma cells, luminescence (AID 1988); format: functional, cell-based
A-375 [11] = experiment: MITF: Counter assay: A375 proliferation Measured in Cell-Based System Using Plate Reader - 2084-03_Inhibitor_Dose_DryPowder_Activity. [Related pubchem assays (depositor defined):AID488944]; format: functional; settings: Homo sapiens
A-375 [12] = experiment: A375 melanoma cell viability reduction, dose response, counter-screen for MITF modulator project, cherry-pick samples, set 2 (AID 540335); format: functional, cell-based; settings: Homo sapiens
[13] = Luminescence Cell-Based Dose Response HTS to Identify Inhibitors of 5'UTR Stem-Loop Driven Prion Protein mRNA Translation in H4 Neuroglioblastoma Cells. [Related pubchem assays: 1827 (Project Summary), 1813 (Primary HTS)]; format: functional
[14] = inhibitors of firefly luciferase expression or activity, dose response, H4 neuroglioma cells, luminescence (AID 1990); format: functional, cell-based
[15] = biological target: T4, Microphthalmia-associated transcription factor (Homo sapiens, UniProt O75030); experiment: TRPM1 promoter luciferase signal decrease, dose response, MITF inhibitor project, cell-based, SK-MEL-5, cherry-picked, set 3 (AID 493073); format: functional
T4 sequence (O75030 whole entry): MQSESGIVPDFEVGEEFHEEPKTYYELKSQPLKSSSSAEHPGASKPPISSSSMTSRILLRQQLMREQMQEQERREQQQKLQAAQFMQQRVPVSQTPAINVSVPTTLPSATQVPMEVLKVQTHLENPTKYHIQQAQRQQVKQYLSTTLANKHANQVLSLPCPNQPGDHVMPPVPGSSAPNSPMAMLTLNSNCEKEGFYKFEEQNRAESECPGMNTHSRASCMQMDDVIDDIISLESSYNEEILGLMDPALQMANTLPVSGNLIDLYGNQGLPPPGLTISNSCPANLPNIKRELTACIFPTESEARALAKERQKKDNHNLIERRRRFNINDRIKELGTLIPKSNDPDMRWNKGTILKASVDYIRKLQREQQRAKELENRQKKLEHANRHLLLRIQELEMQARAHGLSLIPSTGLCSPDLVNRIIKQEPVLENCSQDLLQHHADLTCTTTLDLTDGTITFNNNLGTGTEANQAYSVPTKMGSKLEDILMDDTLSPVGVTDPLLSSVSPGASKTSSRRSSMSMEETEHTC

HEK293 [16] = experiment: SAR Analysis of small molecule inhibitors of B-cell specific antigen receptor-induced NF-kB activation in a HEK-293T cell line using a luminescence assay - Set 2. [Related pubchem assays (depositor defined):AID435022, AID435025, AID489021]; format: functional, cell-based; settings: Homo sapiens
HEK293 [17] = experiment: cytotoxicity in HEK293T NF-kB-Luc cells, SAR follow-up, cytotoxicity control for NF-kB activator project, cell-based, resazurin fluorescence (AID 493251); format: functional; settings: Homo sapiens
Jurkat = experiment: SAR Analysis of small molecule inhibitors of […] specific antigen receptor-induced NF-kB activation in a Jurkat cell line using a luminescence assay - Set 3. [Related pubchem assays (depositor defined):AID435022, AID435025, AID465]; format: functional, cell-based; settings: Homo sapiens
Hexokinase-1 = Hexokinase-1 (Homo sapiens, UniProt P19367); experiment: SAR analysis of small molecule inhibitors of hexokinase domain containing I (HKDC1) in the hexokinase 1 selectivity assay. [Related pubchem assays (depositor defined):AID493160, AID493190]; format: functional
Hexokinase HKDC1 = Hexokinase HKDC1 (Homo sapiens, UniProt Q2TB90); experiment: SAR analysis of small molecule inhibitors of hexokinase domain containing I (HKDC1). [Related pubchem assays (depositor defined):AID493160, AID493190]; format: functional
[18] = biological target: Voltage-gated inwardly rectifying potassium channel KCNH2 (Homo sapiens, UniProt Q12809); settings: Potency;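 also: confirmatory quantitative high-throughput screen measuring inhibition of hERG channel activity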
[19] = biological target: T5, Acyl-homoserine lactone acylase PvdQ (Pseudomonas aeruginosa (strain LESB58), UniProt Q9I194); experiment: P. aeruginosa PvdQ acylase inhibitors, dose response, biochemical, fluorescence, plate reader and imaging, cherry-picks (AID 493231)
T5 sequence (Q9I194 whole entry): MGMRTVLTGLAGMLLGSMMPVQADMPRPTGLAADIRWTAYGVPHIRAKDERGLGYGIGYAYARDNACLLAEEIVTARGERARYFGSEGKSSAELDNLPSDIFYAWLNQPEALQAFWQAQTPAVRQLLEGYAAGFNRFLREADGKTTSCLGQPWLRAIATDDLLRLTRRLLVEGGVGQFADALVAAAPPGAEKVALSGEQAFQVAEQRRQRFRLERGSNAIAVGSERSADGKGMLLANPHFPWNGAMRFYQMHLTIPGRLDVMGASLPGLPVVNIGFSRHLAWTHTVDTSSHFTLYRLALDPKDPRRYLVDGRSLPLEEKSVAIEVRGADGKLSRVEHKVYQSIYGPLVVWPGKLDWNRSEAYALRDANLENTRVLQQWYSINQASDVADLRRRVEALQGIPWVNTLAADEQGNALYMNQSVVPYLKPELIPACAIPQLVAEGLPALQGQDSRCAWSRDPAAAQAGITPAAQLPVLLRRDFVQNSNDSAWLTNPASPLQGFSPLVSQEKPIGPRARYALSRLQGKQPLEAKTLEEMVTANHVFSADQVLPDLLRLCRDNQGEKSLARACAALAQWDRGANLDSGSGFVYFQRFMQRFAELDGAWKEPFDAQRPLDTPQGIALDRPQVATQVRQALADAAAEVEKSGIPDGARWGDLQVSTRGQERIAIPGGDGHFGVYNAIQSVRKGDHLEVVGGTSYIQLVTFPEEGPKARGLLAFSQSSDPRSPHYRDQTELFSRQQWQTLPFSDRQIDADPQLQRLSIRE

HeLa = experiment: HeLa cell cytotoxicity, dose response, cytotoxicity control, 48 h, plate reader, cherry-picks (AID 504942); format: functional, cell-based; settings: Homo sapiens

T2 sequence (Q9UBE0 whole entry): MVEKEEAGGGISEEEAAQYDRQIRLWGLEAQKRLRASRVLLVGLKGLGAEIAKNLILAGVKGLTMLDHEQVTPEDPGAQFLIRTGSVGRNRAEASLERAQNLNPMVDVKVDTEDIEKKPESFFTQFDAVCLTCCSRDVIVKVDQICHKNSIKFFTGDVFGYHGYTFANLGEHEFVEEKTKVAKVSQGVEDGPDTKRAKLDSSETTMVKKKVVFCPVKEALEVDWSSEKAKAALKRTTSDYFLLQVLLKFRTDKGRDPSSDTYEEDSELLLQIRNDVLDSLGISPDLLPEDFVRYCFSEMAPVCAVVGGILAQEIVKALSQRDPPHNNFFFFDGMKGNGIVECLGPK
T2 sequence (Q9UBT2 whole entry): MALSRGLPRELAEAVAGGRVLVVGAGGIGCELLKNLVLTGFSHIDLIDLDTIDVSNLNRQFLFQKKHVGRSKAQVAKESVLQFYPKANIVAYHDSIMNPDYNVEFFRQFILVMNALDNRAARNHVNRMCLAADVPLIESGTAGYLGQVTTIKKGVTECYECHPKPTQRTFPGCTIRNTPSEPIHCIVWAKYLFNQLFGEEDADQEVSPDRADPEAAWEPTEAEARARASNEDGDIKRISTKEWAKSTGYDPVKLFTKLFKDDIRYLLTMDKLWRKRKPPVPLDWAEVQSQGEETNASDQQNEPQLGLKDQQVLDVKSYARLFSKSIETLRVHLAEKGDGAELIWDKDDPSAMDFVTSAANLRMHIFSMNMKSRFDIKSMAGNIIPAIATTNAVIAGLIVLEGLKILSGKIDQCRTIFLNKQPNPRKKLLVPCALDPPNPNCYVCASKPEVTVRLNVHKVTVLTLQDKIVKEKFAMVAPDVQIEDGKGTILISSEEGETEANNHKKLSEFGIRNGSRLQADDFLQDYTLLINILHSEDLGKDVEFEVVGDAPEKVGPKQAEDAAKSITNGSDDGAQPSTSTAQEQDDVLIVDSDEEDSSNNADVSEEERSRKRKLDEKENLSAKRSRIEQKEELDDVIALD
Hexokinase HKDC1, sequence (Q2TB90 whole entry, the tested form may be a part): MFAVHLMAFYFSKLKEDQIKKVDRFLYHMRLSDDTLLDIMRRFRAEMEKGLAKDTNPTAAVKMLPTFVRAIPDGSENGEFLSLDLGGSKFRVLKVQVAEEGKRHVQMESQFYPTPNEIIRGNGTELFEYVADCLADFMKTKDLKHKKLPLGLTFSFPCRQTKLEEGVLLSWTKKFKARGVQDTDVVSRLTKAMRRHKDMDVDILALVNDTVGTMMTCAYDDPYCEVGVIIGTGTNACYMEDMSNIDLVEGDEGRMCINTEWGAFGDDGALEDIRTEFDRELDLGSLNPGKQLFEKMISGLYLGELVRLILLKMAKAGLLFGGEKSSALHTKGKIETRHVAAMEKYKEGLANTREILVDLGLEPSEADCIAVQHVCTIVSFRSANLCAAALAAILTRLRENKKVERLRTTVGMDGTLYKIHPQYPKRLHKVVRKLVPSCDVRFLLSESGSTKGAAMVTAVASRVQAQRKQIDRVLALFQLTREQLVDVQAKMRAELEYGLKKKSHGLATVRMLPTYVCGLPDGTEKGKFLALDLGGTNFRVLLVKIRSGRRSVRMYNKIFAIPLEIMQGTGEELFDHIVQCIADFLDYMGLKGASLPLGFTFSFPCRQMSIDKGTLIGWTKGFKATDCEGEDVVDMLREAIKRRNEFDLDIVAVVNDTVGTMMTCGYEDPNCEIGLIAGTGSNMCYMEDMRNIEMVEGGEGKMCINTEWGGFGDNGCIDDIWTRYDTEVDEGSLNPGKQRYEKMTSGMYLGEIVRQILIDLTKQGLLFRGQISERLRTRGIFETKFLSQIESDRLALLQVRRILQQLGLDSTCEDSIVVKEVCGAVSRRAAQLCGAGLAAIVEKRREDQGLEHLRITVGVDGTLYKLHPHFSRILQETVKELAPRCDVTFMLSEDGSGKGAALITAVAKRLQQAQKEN
Hexokinase-1, sequence (P19367 whole entry, the tested form may be a part): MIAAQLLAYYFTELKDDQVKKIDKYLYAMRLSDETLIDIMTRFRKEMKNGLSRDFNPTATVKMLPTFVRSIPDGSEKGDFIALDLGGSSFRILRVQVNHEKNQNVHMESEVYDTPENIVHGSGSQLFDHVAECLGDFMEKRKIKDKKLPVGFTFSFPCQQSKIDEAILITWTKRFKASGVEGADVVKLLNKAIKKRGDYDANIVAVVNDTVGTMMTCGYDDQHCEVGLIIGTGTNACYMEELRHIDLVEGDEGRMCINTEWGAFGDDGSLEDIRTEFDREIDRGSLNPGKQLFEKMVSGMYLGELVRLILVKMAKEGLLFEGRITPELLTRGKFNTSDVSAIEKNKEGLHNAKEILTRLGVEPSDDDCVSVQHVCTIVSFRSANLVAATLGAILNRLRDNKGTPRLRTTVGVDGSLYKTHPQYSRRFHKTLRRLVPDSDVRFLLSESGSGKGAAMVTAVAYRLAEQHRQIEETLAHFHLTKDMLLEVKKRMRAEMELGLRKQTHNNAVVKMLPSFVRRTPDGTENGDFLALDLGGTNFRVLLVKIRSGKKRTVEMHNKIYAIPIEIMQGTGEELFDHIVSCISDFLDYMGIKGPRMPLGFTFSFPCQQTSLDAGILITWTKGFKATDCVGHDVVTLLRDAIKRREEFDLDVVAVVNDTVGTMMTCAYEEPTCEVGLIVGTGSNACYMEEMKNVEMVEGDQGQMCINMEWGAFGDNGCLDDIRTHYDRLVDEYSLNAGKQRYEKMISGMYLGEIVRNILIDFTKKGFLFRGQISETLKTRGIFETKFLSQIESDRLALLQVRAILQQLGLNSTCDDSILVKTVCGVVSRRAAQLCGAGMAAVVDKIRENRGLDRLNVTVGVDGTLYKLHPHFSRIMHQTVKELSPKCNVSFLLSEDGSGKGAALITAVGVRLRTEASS
Serine/threonine-protein phosphatase, sequence (B9W6M3 whole entry): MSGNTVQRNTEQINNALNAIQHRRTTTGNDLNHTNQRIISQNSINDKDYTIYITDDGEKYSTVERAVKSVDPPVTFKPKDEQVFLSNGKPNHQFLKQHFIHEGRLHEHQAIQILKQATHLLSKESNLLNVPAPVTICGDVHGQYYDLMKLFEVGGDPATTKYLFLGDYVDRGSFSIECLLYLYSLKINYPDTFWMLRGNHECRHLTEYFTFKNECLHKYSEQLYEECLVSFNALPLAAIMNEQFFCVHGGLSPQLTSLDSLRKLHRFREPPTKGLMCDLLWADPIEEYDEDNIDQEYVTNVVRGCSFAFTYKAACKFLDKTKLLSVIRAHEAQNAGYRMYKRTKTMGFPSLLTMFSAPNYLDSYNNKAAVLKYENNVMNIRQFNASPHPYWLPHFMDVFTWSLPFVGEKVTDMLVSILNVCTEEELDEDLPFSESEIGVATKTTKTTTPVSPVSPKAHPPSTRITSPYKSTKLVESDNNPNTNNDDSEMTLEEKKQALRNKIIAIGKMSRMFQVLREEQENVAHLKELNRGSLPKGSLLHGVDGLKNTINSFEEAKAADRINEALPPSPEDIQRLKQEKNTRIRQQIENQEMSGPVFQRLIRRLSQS
Voltage-gated inwardly rectifying potassium channel KCNH2, sequence (Q12809 whole entry): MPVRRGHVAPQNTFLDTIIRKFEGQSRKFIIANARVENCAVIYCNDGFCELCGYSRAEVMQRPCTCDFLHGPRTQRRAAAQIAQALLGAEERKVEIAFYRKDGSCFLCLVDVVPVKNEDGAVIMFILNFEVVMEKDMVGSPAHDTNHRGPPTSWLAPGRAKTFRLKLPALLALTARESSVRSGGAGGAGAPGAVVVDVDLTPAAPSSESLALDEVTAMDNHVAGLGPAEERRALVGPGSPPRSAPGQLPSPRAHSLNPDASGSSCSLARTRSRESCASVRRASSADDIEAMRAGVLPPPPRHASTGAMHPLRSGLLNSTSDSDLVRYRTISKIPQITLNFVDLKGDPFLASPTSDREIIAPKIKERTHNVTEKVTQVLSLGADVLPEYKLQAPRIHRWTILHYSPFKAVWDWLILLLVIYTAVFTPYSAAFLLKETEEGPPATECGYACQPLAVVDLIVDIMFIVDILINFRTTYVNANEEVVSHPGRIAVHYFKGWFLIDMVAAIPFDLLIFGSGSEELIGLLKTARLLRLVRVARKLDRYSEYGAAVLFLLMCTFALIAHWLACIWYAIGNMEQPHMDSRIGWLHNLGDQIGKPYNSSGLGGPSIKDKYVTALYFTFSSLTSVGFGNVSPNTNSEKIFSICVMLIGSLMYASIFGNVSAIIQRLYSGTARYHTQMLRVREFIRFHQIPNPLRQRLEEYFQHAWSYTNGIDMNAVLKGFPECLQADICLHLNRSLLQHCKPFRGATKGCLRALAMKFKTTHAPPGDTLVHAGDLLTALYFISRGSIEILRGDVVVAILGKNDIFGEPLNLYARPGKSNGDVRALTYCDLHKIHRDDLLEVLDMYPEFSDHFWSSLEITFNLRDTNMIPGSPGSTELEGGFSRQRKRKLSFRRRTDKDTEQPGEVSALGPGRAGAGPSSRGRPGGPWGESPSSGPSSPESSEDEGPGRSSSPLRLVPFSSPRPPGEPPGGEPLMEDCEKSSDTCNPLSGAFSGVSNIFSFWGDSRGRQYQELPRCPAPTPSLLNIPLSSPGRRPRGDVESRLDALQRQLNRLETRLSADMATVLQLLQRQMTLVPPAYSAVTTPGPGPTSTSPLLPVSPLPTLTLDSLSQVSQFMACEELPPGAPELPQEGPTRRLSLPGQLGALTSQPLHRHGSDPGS
Dual specificity protein kinase CLK1, sequence (P49759 whole entry): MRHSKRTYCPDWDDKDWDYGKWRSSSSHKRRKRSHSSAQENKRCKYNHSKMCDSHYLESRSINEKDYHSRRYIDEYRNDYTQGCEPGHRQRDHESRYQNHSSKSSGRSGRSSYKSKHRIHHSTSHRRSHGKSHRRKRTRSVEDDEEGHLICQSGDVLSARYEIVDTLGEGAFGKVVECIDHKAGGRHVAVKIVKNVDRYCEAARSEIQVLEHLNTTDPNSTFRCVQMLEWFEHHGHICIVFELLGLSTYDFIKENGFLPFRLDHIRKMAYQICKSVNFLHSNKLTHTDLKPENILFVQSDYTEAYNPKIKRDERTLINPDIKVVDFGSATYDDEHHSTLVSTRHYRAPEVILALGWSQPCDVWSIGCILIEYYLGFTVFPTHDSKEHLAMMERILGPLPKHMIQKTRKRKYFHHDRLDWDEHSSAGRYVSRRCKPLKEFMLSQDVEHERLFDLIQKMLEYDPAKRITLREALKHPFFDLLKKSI

SMILES: Clc1ccc(CNc2nccc(-c3ccc4c(c3)OCCO4)n2)cc1Cl
- AC50 [1]: 0.0206 µM (active)

SMILES: CN(C)c1cc(N/N=C/c2ccc(Cl)cc2)nc(N(C)C)n1
- AC50 [2]: 6.18 µM (active)
- EC50 [3]: > 180 µM (inactive)
- IC50 (SUMO-activating enzyme [4]): 1 µM (active)
- IC50 [5]: > 50 µM (not active)
- EC50 [6]: > 160 µM (inactive)
- CC50 (Vero): > 40 µM (active)
- IC50 (SUMO-activating enzyme [7]): 14.2 µM (active)
- EC50 [8]: 0.401 µM (active)
- EC50 [9]: > 160 µM (inactive)

SMILES: CC(=O)c1ccc(S(=O)(=O)N2CCN(C(=O)/C=C/c3ccc4ccccc4n3)CC2)cc1
- EC50 [10]: 10.3 µM (active)
- AC50 (A-375 [11]): > 35 µM (active)
- AC50 (A-375 [12]): > 35 µM (active)
- EC50 [13]: 11.8 µM (active)
- EC50 [14]: 13.4 µM (active)
- AC50 [15]: 12 µM (active)

SMILES: CCOc1ccc(-c2nc(CSCC(=O)NCC3CCCO3)c(C)o2)cc1 (centres undefined)
- IC50 (HEK293 [16]): 67.7 µM (inactive)
- IC50 (HEK293 [17]): > 80 µM (inactive)
- IC50 (Jurkat): > 80 µM (inactive)

SMILES: Cc1ccc(S(=O)(=O)Nc2cc(SCCC(=O)O)c(O)c3ccccc23)cc1
- IC50 (Hexokinase-1): > 80 µM (inactive)
- IC50 (Hexokinase HKDC1): 10 µM (active)

SMILES: COC(=O)c1c(-c2cc(OC)c(OC)c(OC)c2)c2ccc(OCc3ccccn3)cc2c(=O)n1-c1ccc(N)cc1
- AC50 [18]: 5.62 µM (inconclusive)

SMILES: COc1ccc(-c2cc3ncccc3cn2)cc1
- AC50 [19]: 7.13 µM (active)
- AC50 (HeLa): 72.9 µM (active)
